Experimental data from patent US20240336573A1, “COMPOUND FOR THE TREATMENT AND PROPHYLAXIS OF INFECTIOUS DISEASES” (Eberhard Karls Universität Tübingen Medizinische Fakultät, priority 2021, published 2024).

Experiments:
SurA [1] = target: T1, SurA (Escherichia coli, UniProt P0ABZ6); assay: Luciferase-based SurA activity assay (primary assay, in-house); assay type: biochemical, E. coli; design: key to primary assay SurA: SurA inhibition = +; no SurA inhibition = 0; conditions: for primary assay SurA: shelf derivatives evaluation
T1 sequence (P0ABZ6 21-428): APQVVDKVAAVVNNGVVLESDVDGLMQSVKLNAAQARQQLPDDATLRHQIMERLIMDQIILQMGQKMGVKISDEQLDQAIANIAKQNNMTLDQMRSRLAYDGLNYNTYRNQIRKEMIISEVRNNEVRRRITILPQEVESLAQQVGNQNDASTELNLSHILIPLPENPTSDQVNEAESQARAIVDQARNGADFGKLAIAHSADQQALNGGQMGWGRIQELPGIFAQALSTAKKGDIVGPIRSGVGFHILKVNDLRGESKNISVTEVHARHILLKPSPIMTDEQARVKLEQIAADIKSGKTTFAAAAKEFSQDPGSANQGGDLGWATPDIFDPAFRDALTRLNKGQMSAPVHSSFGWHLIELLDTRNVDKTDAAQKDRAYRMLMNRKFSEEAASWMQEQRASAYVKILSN
From the text: The biological function of SurA is to bind and to keep outer membrane proteins that have reached the periplasm in an unfolded but folding-competent state. The inventors' assay is based on this interaction and uses firefly Luciferase (fLuc) as a non-native substrate. […] This is exploited in the assay (FIG. 3). The loss of tertiary structure of fLuc leads to the exposure of binding sites for SurA. It is known that SurA binds selectively to a special group of substrates. These substrates have in common the specific patterns of hydrophobic amino acids that are highly enriched in the beta strands of integral outer membrane proteins. These motifs are present in OMPs of all Gram-negative bacteria and in fLuc as well. Upon mild heat treatment of fLuc and its subsequent partial unfolding, fLuc is accepted as a substrate by SurA. Of note, these intermediates served as reporter substrates to determine the activity of a […] folding chaperone. […] This interaction remains stable upon temperature reduction. Next, the temperature of the assay is reduced to room temperature and luciferase activity is subsequently measured by addition of Luciferin and ATP. In conditions without SurA, fLuc will refold into its active conformation resulting in a luminescence signal.
In short, the Luciferase based SurA activity assay was performed in SurA Activity Assay Buffer (40 mM HEPES pH 7.4, 20 mM MgSO4, 0.5 g/I BSA). SurA aliquots were thawn at RT, activated by mild heat treatment and cooled down to RT for 10 min. […] Solution A containing 10 mM ATP as well as 0.3 mM Luciferin (Promega Beetle Luciferin, Potassium Salt) in water was prepared. Luciferase working solution was prepared by diluting 1 ml Luciferase working stock (100 nM) with 9 ml assay buffer. 33 μl of the protein solution were added to every 2nd row of a well of a 384-well PS, white, flat bottom plate. […] Subsequently, 2 μl of compound in DMSO were added in quadruplicates (4 wells each of protein solution and buffer controls). These compound solutions could contain either various compounds or different dilutions of the same compound allowing screening inhibitor activity in a dose dependent manner. After compound addition, plates were incubated 15 min at RT. After this incubation, 5 μl of Luciferase working solution were added to each well. Next, the plates were incubated 25 min at 38° C. to partially unfold the Luciferase. Subsequently, the assay plate was cooled for 5 min at 4° C. followed by 10 min incubation at RT prior to luminescence measurement. Luminescence was measured in a TECAN infinite M200 pro plate reader for each well individually after injection of 10 μl Solution A.

SurA [2] = target: T1, SurA; assay: nanoDSF of QHL compounds (Tycho); assay type: binding, E. coli; design: key: An increase of the inflection points in the nanoDSF experiments is indicated by (+); a decrease by (−); no changes with (none); ambiguity with a question mark (?); conditions: re-evaluation; 100 μM compound, 2 μM SurA, 40 mM HEPES pH 7.4
Description: Nano Differential Scanning Fluorimetry (nanoDSF) measurements of the QHL (qualified hit list) compounds provided by the ELF were performed on a Tycho system (NanoTemper).

luciferase = luciferase (Photinus pyralis, UniProt P08659); assay: Primary assay buffer control: interference with Luciferase per se; assay type: biochemical, firefly; design: key: no influence on Luc activity = 0; enhances Luc activity = +; reduces Luc activity = −
Chain of luciferase (P08659 whole entry): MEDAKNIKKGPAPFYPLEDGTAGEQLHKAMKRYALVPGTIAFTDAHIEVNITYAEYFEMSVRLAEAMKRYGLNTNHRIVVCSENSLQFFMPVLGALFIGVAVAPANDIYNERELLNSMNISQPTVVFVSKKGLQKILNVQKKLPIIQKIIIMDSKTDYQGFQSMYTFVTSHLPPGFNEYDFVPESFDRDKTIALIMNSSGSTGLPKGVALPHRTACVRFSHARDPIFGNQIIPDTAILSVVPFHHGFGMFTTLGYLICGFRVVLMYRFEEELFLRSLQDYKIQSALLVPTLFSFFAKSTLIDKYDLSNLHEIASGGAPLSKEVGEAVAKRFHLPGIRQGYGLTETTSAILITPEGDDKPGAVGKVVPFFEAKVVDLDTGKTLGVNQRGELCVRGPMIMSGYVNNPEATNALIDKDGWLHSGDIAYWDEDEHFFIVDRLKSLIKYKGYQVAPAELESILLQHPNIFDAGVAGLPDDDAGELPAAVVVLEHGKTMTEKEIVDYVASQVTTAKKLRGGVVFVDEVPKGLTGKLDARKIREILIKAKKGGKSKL
Description: In short, the Luciferase based SurA activity assay was performed in SurA Activity Assay Buffer (40 mM HEPES pH 7.4, 20 mM MgSO4, 0.5 g/I BSA). SurA aliquots were thawn at RT, activated by mild heat treatment and cooled down to RT for 10 min. SurA concentration was adjusted to 1.6 μM in Activity Assay Buffer (protein solution). Solution A containing 10 mM ATP as well as 0.3 mM Luciferin (Promega Beetle Luciferin, Potassium Salt) in water was prepared. Luciferase working solution was prepared by diluting 1 ml Luciferase working stock (100 nM) with 9 ml assay buffer. 33 μl of the protein solution were added to every 2nd row of a well of a 384-well PS, white, flat bottom plate. […] Subsequently, 2 μl of compound in DMSO were added in quadruplicates (4 wells each of protein solution and buffer controls). These compound solutions could contain either various compounds or different dilutions of the same compound allowing screening inhibitor activity in a dose dependent manner. After compound addition, plates were incubated 15 min at RT. After this incubation, 5 μl of Luciferase working solution were added to each well. […] Subsequently, the assay plate was cooled for 5 min at 4° C. followed by 10 min incubation at RT prior to luminescence measurement. Luminescence was measured in a TECAN infinite M200 pro plate reader for each well individually after injection of 10 μl Solution A.

[3] = Solubility estimate based on turbidity (OD600 nm); assay type: physicochemical
From the text: The evaluation of these shelf derivatives included an estimate of their solubility based on the turbidity (OD600 nm) as well as their activity in the primary assay (2.1), their KD (2.2), their MIC reduction of Vancomycin (2.5) and their cytotoxicity (2.6) (Table 4).

Row | Structure (SMILES) | Primary Assay ICmax (SurA [1]; QHL-10 derivatives, dose response up to 125 μM, n/d: no signal detected) [µM] | Primary Assay Amplitude (SurA [1]; amplitude of signal, n/d: no signal detected) | primary assay SurA (SurA [1]) | nanoDSF(Tycho) Ti#1 (SurA [2]) | nanoDSF(Tycho) Ti#2 (SurA [2]) | primary assay Luciferase (luciferase) | Solubility (in words) [3]
1 | NC(=O)c1nc(Cc2ccc(OCC(=O)O)cc2)[nH]c1NC(=O)c1ccc(-c2ccccc2)cc1 [Compound 2a, 2-(4-((5-([1,1′-biphenyl]-4-carboxamido)-4-carbamoyl-1H-imidazol-2-yl)methyl)phenoxy)acetic acid] | 4 | high | + | ? | + | − | 
2 | CN(C)c1ccc(-c2nc3cc(NC(=O)Cn4cc5ccccc5n4)ccc3[nH]2)cc1 [QHL-24] |  |  | + | none | + | − | poor solubility
